Patent US5869265A, “Ileal bile acid transporter compositions and methods” (Wake Forest University, priority 1996, dated 1999)
Read-outs that look alike come from different tables or passages of the source. One block for each compound: values may come before it.

Assays:
[1] = target: T1, human ileal/renal bile acid transporter (Homo sapiens, UniProt Q12908, S171A); test: Anion specificity of taurocholate uptake in HIBAT-transfected COS cells; conditions: for taurocholate uptake on replacing chloride (in words): anion in place of chloride; for Taurocholate Uptake, percentage of control: control = uptake in the presence of NaCl, 15 min, 137000 µM
T1 sequence (Q12908 1-348 S171A): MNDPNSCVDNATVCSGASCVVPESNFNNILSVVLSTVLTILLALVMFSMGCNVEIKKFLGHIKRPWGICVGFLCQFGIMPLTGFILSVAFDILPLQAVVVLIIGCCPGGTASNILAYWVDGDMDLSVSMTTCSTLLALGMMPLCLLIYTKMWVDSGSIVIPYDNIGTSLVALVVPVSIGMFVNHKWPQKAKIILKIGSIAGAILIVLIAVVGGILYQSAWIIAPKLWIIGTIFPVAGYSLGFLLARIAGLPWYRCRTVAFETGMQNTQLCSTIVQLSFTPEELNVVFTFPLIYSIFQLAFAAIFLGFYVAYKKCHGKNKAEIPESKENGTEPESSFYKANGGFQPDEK
Protocol: COS cells were seeded (1.5×10^6 cells/100 mm dish) in DMEM and transfected the following day with pCMV5-HIBAT or pCMV2-βgalactosidase (5 μg) by the DEAE-dextran method. On day 2, each group of transfected cells was treated with trypsin, pooled, and replated in 24-well culture plates at 7×10^4 cells/well. […] The cells were then lysed in 0.1N NaOH and aliquots were taken to determine protein and cell-associated radioactivity. […] Data are also given as percentage of control (uptake in the presence of NaCl).

[2] = system: liver membranes; conditions: cited from earlier work
[3] = target: T2, ileal Na^+ /bile acid cotransporter (IBAT) (Cricetulus griseus, UniProt Q60414); test: Inhibition of [^3 H]taurocholate uptake by organic anions in pIBAT-transfected COS cells (FIG. 6B); format: cell-based, hamster; conditions: 100 μM unlabeled inhibitor, 5 μM [^3 H]taurocholate
T2 construct: The hamster IBAT cDNA encodes a protein of 348 amino acids; expressed in transfected cells; host or cells: COS-1 cells, transient DEAE-dextran transfection with pIBAT (cDNA in pCMX)
T2 sequence (Q60414 1-348): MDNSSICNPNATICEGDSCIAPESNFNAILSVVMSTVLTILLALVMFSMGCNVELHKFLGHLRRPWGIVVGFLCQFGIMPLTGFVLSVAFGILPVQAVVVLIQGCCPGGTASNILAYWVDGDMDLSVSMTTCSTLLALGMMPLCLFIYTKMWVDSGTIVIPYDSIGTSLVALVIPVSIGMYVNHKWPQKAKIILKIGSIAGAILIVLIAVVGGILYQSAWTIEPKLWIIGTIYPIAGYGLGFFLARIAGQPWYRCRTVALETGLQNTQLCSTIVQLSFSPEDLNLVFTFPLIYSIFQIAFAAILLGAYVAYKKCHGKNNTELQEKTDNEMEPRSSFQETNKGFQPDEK
Protocol: FIG. 6B. […] COS cells were plated and transfected as described in the description of FIG. 4 (immediately above).
(§1) On day 0, dishes of 1.50×10^6 cells per 100-mm dish were plated in medium A. On day 1, the cells were transfected by the DEAE-dextran method (Esser et al., 1988) with 5 μg plasmid DNA. […] After the indicated amount of time at 37° C., the medium was removed, and each cell monolayer was washed and processed to determine cell-associated protein and radioactivity as described above.

[4] = target: T1, human ileal/renal bile acid transporter; test: Cation specificity of taurocholate uptake in HIBAT-transfected COS cells; format: cell-based; set-up: were fused to make a single clone encoding the entire gene; expressed in transfected cells; host or cells: COS cells, transient DEAE-dextran transfection with pCMV5-HIBAT; conditions: for Taurocholate Uptake, percentage of control: control = uptake in the presence of sodium, 15 min, 137000 µM
Protocol: (§2) COS cells were seeded (1.5×10^6 cells/100 mm dish) in DMEM and transfected the following day with pCMV5-HIBAT or pCMV2-βgalactosidase (5 μg) by the DEAE-dextran method. On day 2, each group of transfected cells was treated with trypsin, pooled, and replated in 24-well culture plates at 7×10^4 cells/well. […] The cells were then lysed in 0.1N NaOH and aliquots were taken to determine protein and cell-associated radioactivity. […] Data are also given as percentage of control (uptake in the presence of sodium).

[5] = system: ileal/renal bile acid transporter; conditions: cation replacing Na^+; cited from earlier work
[6] = target: T3, human ileal/renal bile acid transporter (Homo sapiens, UniProt Q12908); test: Cation specificity of taurocholate uptake in HIBAT-transfected COS cells; format: cell-based; conditions: 137 mM cation, 5 μM [^3 H]taurocholate, 15 min, 37° C., mean±SD of triplicate
T3 construct: were fused to make a single clone encoding the entire gene; expressed in transfected cells; host or cells: COS cells, transient DEAE-dextran transfection with pCMV5-HIBAT
T3 sequence (Q12908 1-348 S171A): T1 sequence (Q12908 1-348 S171A)
Protocol: as §2

[7] = target: T1, human ileal/renal bile acid transporter; test: Substrate specificity: [^3 H]taurocholate competition in HIBAT-transfected COS cells (Dixon plot); format: cell-based; set-up: were fused to make a single clone encoding the entire gene; expressed in transfected cells; host or cells: COS cells, transient DEAE-dextran transfection with pCMV5-HIBAT
Text: It is the ileal/renal bile acid transporter system's remarkable substrate specificity that makes it an appealing pharmacological target for the treatment of hypercholesterolemia by interrupting the enterohepatic circulation of bile acids. […] These studies of the major bile acid species were later extended in animal model systems to include various chemical derivatives of bile acids. However, the affinity of the human ileal/renal bile acid transporter for these natural bile acids has never been studied systematically. In addition to bile acids, the transport of other organic anions has been studied. […] The Km, Vmax, and Ki values were determined using Eadie-Hofstee and Dixon plot analysis.

[8] = target: T2, ileal Na^+ /bile acid cotransporter (IBAT); test: Competition for [^3 H]taurocholate uptake in pIBAT-transfected COS cells (transport specificity, FIG. 6A); format: cell-based, hamster; conditions: for inhibition of [^3 H]taurocholate uptake: 50 μM unlabeled competitor, 5 μM [^3 H]taurocholate (10-fold molar excess); for effect on [^3 H]taurocholate uptake (in words): 50 μM competitor, compared with taurocholate
Protocol: FIG. 6A. Transport specificity of pIBAT-transfected COS cells in the presence of competitors. COS cells were plated and transfected as described in the description of FIG. 4 (immediately above).
as §1
To examine the transport specificity of the IBAT protein, COS cells were transfected with the IBAT cDNA and incubated with 50 μM unlabeled bile acid or other competitor.

[9] = system: liver taurocholate uptake; conditions: cited from earlier work
[10] = system: ileal transporter; conditions: in vivo; cited from earlier work
[11] = target: T2, ileal Na^+ /bile acid cotransporter (IBAT); test: Sodium-dependence of taurocholate uptake in IBAT-transfected COS cells; format: cell-based, hamster
Protocol: as §1

[12] = system: cholestasis; conditions: patients with cholestasis; cited from earlier work

Compound: CC(=O)O [Acetate, sodium acetate]
taurocholate uptake on replacing chloride (in words) [1]: markedly reduced

Compound: O=C1OC(c2ccc(O)c(S(=O)(=O)O)c2)(c2ccc(O)c(S(=O)(=O)O)c2)c2c(Br)c(Br)c(Br)c(Br)c21 [BSP, bromosulfophthalein]
inhibition of Na^+ -dependent taurocholate uptake (in words) [2]: shown to inhibit
inhibition of [^3 H]taurocholate uptake (in words) [3]: not to be significantly inhibited
inhibition of [^3 H]taurocholate uptake (in words) ([3]; listed as bromosulfophthalein (BSP)): not inhibited

Taurocholate Uptake, percentage of control [4]: 2%
Taurocholate Uptake [6]: 0.2 ± 0.01 pmol/min/mg
Compound: [Cs+] [Cesium]
effect of replacing Na^+ on active taurocholate transport (in words) [5]: significantly inhibited

Compound: C[C@H](CCC(=O)O)[C@H]1CC[C@H]2[C@@H]3[C@H](O)C[C@@H]4C[C@H](O)CC[C@]4(C)[C@H]3CC[C@]12C [Chenodeoxycholate]
Ki [7]: 3.3 ± 1.9 µM

Compound: Cl [Chloride]
Taurocholate Uptake, percentage of control [1]: 100%

Compound: C[C@H](CCC(=O)O)[C@H]1CC[C@H]2[C@@H]3[C@H](O)C[C@@H]4C[C@H](O)CC[C@]4(C)[C@H]3C[C@H](O)[C@]12C [Cholate]
inhibition of [^3 H]taurocholate uptake [8]: 51%

Compound: O=C(O)CC(O)(CC(=O)O)C(=O)O [Citrate]
taurocholate uptake on replacing chloride (in words) [1]: markedly reduced

inhibition of [^3 H]taurocholate uptake (in words) [3]: not to be significantly inhibited
inhibition of [^3 H]taurocholate uptake (in words) ([3]; listed as 4,4'-diisothiocyano-2,2'-disulfonic acid stilbene (DIDS)): not inhibited
Compound: O=S(=O)(O)c1cc(N=C=S)ccc1C=Cc1ccc(N=C=S)cc1S(=O)(=O)O [DIDS, 4,4'-diisothiocyano-2,2'-disulfonic acid stilbene]
inhibition of Na^+ -dependent taurocholate uptake (in words) [2]: shown to inhibit
competition for liver taurocholate uptake (in words) [9]: compete for liver taurocholate uptake
effect against the ileal transporter (in words) [10]: ineffective

Compound: C[C@H](CCC(=O)O)[C@H]1CC[C@H]2[C@@H]3CC[C@@H]4C[C@H](O)CC[C@]4(C)[C@H]3C[C@H](O)[C@]12C [Deoxycholate]
Ki [7]: 6.4 ± 2.5 µM

Compound: [Li] [Lithium]
effect of replacing Na^+ on active taurocholate transport (in words) [5]: significantly inhibited
Taurocholate Uptake [6]: 0.3 ± 0.04 pmol/min/mg

taurocholate uptake on replacing Na^+ (in words) ([4]; cation replacing Na^+): dramatically reduced
Taurocholate Uptake, percentage of control [4]: 3%
support of [^3 H]taurocholate uptake (in words) ([11]; in place of 137 mM Na^+, equal concentration): unable to support
Taurocholate Uptake [6]: 0.3 ± 0.17 pmol/min/mg
Compound: [K+] [Potassium]
effect of replacing Na^+ on active taurocholate transport (in words) [5]: significantly inhibited

Taurocholate Uptake, percentage of control [4]: 3%
Taurocholate Uptake [6]: 0.3 ± 0.09 pmol/min/mg
Compound: [Rb] [Rubidium]
effect of replacing Na^+ on active taurocholate transport (in words) [5]: significantly inhibited

Taurocholate Uptake, percentage of control [4]: 100%
taurocholate uptake (100% of control value) ([11]; 137 mM sodium, 5 μM [^3 H]taurocholate, 15 minutes): 134±26 pmoles min^-1 mg^-1 protein
Taurocholate Uptake [6]: 9.2 ± 0.41 pmol/min/mg
Compound: [Na+] [Sodium]

Taurocholate Uptake, percentage of control [1]: 69%
Compound: O=S(=O)(O)O [Sulfate]

Ki ([7]; read-out: Apparent Ki): 3.2 ± 0.5 µM
effect on [^3 H]taurocholate uptake (in words) [8]: competed more effectively
effect on [^3 H]taurocholate uptake (in words) ([8]; listed as taurochenodeoxycholic acid): more effective competitors
inhibition of [^3 H]taurocholate uptake [8]: 87%
Compound: C[C@H](CCC(=O)NCCS(=O)(=O)O)[C@H]1CC[C@H]2[C@@H]3[C@H](O)C[C@@H]4C[C@H](O)CC[C@]4(C)[C@H]3CC[C@]12C [Taurochenodeoxycholate, taurochenodeoxycholate]

Compound: C[C@H](CCC(=O)NCCS(=O)(=O)O)[C@H]1CC[C@H]2[C@@H]3CC[C@@H]4C[C@H](O)CC[C@]4(C)[C@H]3C[C@H](O)[C@]12C [Taurodeoxycholate, taurodeoxycholate]
Ki [7]: 17.3 ± 3.9 µM
effect on [^3 H]taurocholate uptake (in words) [8]: competed more effectively
effect on [^3 H]taurocholate uptake (in words) ([8]; listed as taurodeoxycholic acid): more effective competitors
inhibition of [^3 H]taurocholate uptake [8]: 80%

Ki ([7]; read-out: Apparent Ki): 28.4 ± 7.4 µM
Compound: C[C@H](CCC(=O)NCCS(=O)(=O)O)[C@H]1CC[C@H]2[C@@H]3[C@@H](O)C[C@@H]4C[C@H](O)CC[C@]4(C)[C@H]3CC[C@]12C [Tauroursodeoxycholate]

Compound: C[C@H](CCC(=O)O)[C@H]1CC[C@H]2[C@@H]3[C@@H](O)C[C@@H]4C[C@H](O)CC[C@]4(C)[C@H]3CC[C@]12C [Ursodeoxycholate, Ursodeoxycholic acid]
treatment outcome (in words) [12]: improves liver function, but does not stop the progression of the disease
Ki [7]: 77.1 ± 17.2 µM

Compound: C=CC1=C(C)/C(=C/c2[nH]c(Cc3[nH]c(/C=C4\NC(=O)C(C)=C4C=C)c(C)c3CCC(=O)O)c(CCC(=O)O)c2C)NC1=O [bilirubin]
competition for liver taurocholate uptake (in words) [9]: compete for liver taurocholate uptake
effect against the ileal transporter (in words) [10]: ineffective

Compound: CC1(C)C(/C=C/C=C/C=C/C=C2\N(CCCCS(=O)(=O)O)c3ccc4ccccc4c3C2(C)C)=[N+](CCCCS(=O)(=O)[O-])c2ccc3ccccc3c21 [indocyanine green]
competition for liver taurocholate uptake (in words) [9]: compete for liver taurocholate uptake
effect against the ileal transporter (in words) [10]: ineffective

effect on [^3 H]taurocholate uptake (in words) [8]: limited effect
Compound: NCCS(=O)(=O)O [taurine]

taurocholate uptake on replacing chloride (in words) [1]: markedly reduced
Taurocholate Uptake, percentage of control [1]: 31%
Compound: Phosphate

Compound: phalloidin
competition for liver taurocholate uptake (in words) [9]: compete for liver taurocholate uptake
effect against the ileal transporter (in words) [10]: ineffective
